Measured values taken from US8299100B2, “Potent and selective neuronal nitric oxide synthase inhibitors with improved membrane permeability” (Northwestern University, priority 2009, dated 2012).
Where two headings read alike, the source gives them in different places.

Tests used:
[1] = target: nNOS (Rattus norvegicus, UniProt P29476); assay: cell-based assay of inhibitor potency (membrane permeability); details: for IC50: Table 3, cell-based assay; for increase in cell membrane permeation: relative to 1, from IC50/IC50(cell)
[2] = target: rat nNOS (Rattus norvegicus, UniProt P29476); assay: NOS hemoglobin capture assay, purified recombinant enzyme (nNOS)
[3] = target: murine macrophage iNOS (Mus musculus, UniProt P29477); assay: NOS hemoglobin capture assay, purified recombinant enzyme (iNOS); details: for selectivity n/i: ratio of Ki (iNOS) to Ki (nNOS)
[4] = target: bovine eNOS (Bos taurus, UniProt P29473); assay: NOS hemoglobin capture assay, purified recombinant enzyme (eNOS); details: for selectivity n/e: ratio of Ki (eNOS) to Ki (nNOS)
[5] = read-out: Ki nNOS, Table 4, Ki calculated from measured IC50, 10 μM L-arginine

Row | SMILES | IC50 [1] | increase in cell membrane permeation [1] | Ki [2] | Ki [3] | Ki [4] | selectivity n/i ([3]; Table 4) | selectivity n/e ([4]; Table 4) | further results
1 | Cc1cc(N)nc(CC2CNCC2OCCNC2CC2c2cccc(F)c2)c1 [Compound 2b, 6-(((3S,4S)/(3R,4R)-4-(2-(2-(3-Fluorophenyl)cyclopropylamino)ethoxy)pyrrolidin-3-yl)methyl)-4-methylpyridin-2-amine] | 9 µM | 2.4 fold | 0.046 µM | 11 µM | 68 µM | – | – | IC50/IC50(cell) × 10^−2 ([1]; ratio of purified nNOS IC50 to cell-based IC50, indicates relative membrane permeability): 4.4 × 10^−2; IC50 [2]: 0.4 µM; selectivity n/i ([3]; Table 2): 220; selectivity n/e ([4]; Table 2): 1500
2 | Cc1cc(N)nc(CC2CNCC2OCCNCC(F)c2cccc(F)c2)c1 [Compound 2c, 6-(((3S,4S)/(3R,4R)-4-(2-(2-Fluoro-2-(3-fluorophenyl)propylamino)ethoxy)pyrrolidin-3-yl)methyl)-4-methylpyridin-2-amine] | 10 µM | 1.7 fold | – | – | – | – | – | –
3 | Cc1cc(N)nc(CC2CNCC2OCCNCC(F)(F)c2cccc(F)c2)c1 [Compound 2d, 6-(((3S,4S)/(3R,4R)-4-(2-(2,2-Difluoro-2-(3-fluorophenypethylamino)ethoxy)pyrrolidin-3-yemethyl)-4-methylpyridin-2-amine] | 19 µM | 2.0 fold | – | – | – | – | – | IC50 ([2]; Table 3, purified enzyme assay (nNOS)): 0.7 µM; Ki ([2]; read-out: Ki nNOS, Table 2, Ki calculated from measured IC50, 10 μM L-arginine): 0.08 µM; Ki [2, 5]: 0.08 µM; drop in potency (nNOS) ([2]; relative to 2c): 2.2 fold
4 | Cc1cc(N)nc(C[C@H]2CNC[C@H]2OCCNCC(F)(F)c2cccc(F)c2)c1 [Compound 2da] | – | – | 0.39 µM | 130 µM | 110 µM | – | – | loss of potency (nNOS) ([2]; compared to racemic 2d): five-fold less potent
5 | CC1CC(N)=NC(C[C@@H]2CNC[C@@H]2OCCNCC(F)(F)c2ccccc2)C1 (stereo partly drawn) [Compound 2e] | – | – | 0.17 µM | 26 µM | 130 µM | 150 | 770 | drop in potency against nNOS ([2]; compared to 2dd): 2 fold; better binding to iNOS ([3]; compared to 2dd): more than 3 fold
6 | Cc1cc(N)nc(C[C@H]2CNC[C@H]2OCCNCC(F)(F)C2CCCCN2)c1 (stereo partly drawn) [Compound 2f] | – | – | 2.7 µM | 450 µM | 64 µM | 170 | 24 | –

Now from value to compound, other results behind:

Row | IC50 [1] | increase in cell membrane permeation [1] | Ki [2] | Ki [3] | Ki [4] | selectivity n/i ([3]; Table 4) | selectivity n/e ([4]; Table 4) | SMILES | further results
7 | – | – | 0.036 µM | 51 µM | 140 µM | – | – | Cc1cc(N)nc(C[C@@H]2CNC[C@@H]2OCCNCC(F)(F)c2cccc(F)c2)c1 [Compound 2db] | lower Ki (nNOS) ([2]; 2db compared to 2da): 10 fold
8 | – | – | – | – | – | 1200 | 190 | Cc1cc(N)nc(C[C@@H]2CNC[C@@H]2OCCNCC(F)(F)c2ccc(F)cc2)c1 [Compound 2dc] | loss of potency (nNOS) ([2]; compared to 2db): 4.5 fold; Ki [2, 5]: 0.16 µM; Ki ([3]; read-out: Ki iNOS, Table 4, Ki calculated from measured IC50, 10 μM L-arginine): 190 µM; Ki ([4]; read-out: Ki eNOS, Table 4, Ki calculated from measured IC50, 10 μM L-arginine): 31 µM
9 | – | – | 0.085 µM | 85 µM | – | – | – | Cc1cc(N)nc(C[C@@H]2CNC[C@@H]2OCCNCC(F)(F)c2ccccc2)c1 [Compound 2dd] | –
